Laboratory results from patent US8258186B2, “Pharmaceutical for oral delivery comprising MGBG” (Pathologica, LLC, priority 2009, dated 2012).

Columns and labels:
[1] = Rat single-dose pharmacokinetics; assay type: in vivo, Sprague Dawley rats
Method: Eighteen male Sprague Dawley rats (Charles River) weighing 217-263 g and aged 8-9 weeks were administered the test article, MGBG as either a single bolus intravenous dose of 1 mg/kg (Group 1) or as a single oral gavage dose of 10 mg/kg. A cohort of three animals was sacrificed via CO2 inhalation anaesthesia after final blood collection at each of T=2, 4, 12, 24, 36, and 48 hours post-dose. Dose formulation analysis verified administered dose solutions as within 17% of targeted concentration of 10 mg/kg.
Analysis was performed by LC/MS/MS. Pharmacokinetic analyses were performed on the mean MGBG plasma concentration versus time data using the non-compartmental approach (linear trapezoidal rule for AUC calculations). The WinNonlin sparse sampling tool was used for PK calculations. All samples reported as BQL (Below the Limit of Quantitation, in plasma 2.50 ng/mL) were changed to 0.00 ng/mL for the purpose of analysis.

[2] = Mouse single-dose pharmacokinetics; assay type: in vivo, DBA/1 mice; conditions: for AUC / Cmax: plasma
Method: Twenty-four male DBA/1 mice weighing 19.5-24.7 g and aged 7-9 weeks administered the test article, MGBG, as either a single bolus intravenous dose via a lateral tail vein of 1 mg/kg (Group 1, n=12) or as a single oral gavage dose of 10 mg/kg (Group 2, n=12). Each dose group consisted of 4 cohorts of 3 animals each. Group 1 was sampled at 5, 15, and 30 minutes after dosing; and 1, 2, 4, 8, and 24 hours after dosing. Group 2 was sampled at 1, 2, 4, 8, 12, 24, and 36 hours after dosing. Starting with the first time point, a new cohort was sampled at each successive time point up to the 1-hour (Group 1) or 12-hour (Group 2) time point. The order of sampling among the cohorts was repeated for the subsequent time points (some cohorts may have been bled only once). The second bleed for each cohort was terminal. Animals were sacrificed via CO2 inhalation anaesthesia after final blood collection.
The samples were centrifuged under refrigerated conditions following completion of sample collection at each interval. The resulting plasma was separated and stored frozen at approximately −70° C. until analysis. Analysis was performed by LC/MS/MS. Pharmacokinetic analyses were performed on the mean MGBG plasma concentration versus time data using the non-compartmental approach (linear trapezoidal rule for AUC calculations). The WinNonlin sparse sampling tool was used for PK calculations.

in vivo = test: in vivo; design: species or system beagle dogs; conditions: male, beagle, dog
Method: Two groups of three male beagle dogs weighing 9.0-10.7 kg and aged 8-30 months were fasted overnight before being administered the test article, MGBG, as either a single bolus intravenous dose of 1 mg/kg (Group 1) or as a single oral gavage dose of 10 mg/kg (Group 2). Dose formulation analysis verified administered dose solutions as within 17% of targeted concentrations of 1 and 10 mg/kg for Groups 1 and 2, respectively.
Blood samples (approximately 2.0 mL) were collected for plasma MGBG concentration measurement from all intravenously dosed animals prior to dosing and at approximately T=0.083 (5 min), 0.25 (15 min), 0.5 (30 min), 1, 2, 4, 8, and 24 hours after dosing. A similar procedure was used with orally dosed animals was used, except that collection took place at T=1, 2, 4, 8, 12, 24, and 36 hours after dosing. The samples were centrifuged under refrigerated conditions following completion of sample collection at each interval. The resulting plasma was separated and stored frozen at approximately −70° C. until analysis.

[3] = male, Sprague Dawley, plasma, single bolus IV 1 mg/kg, mean
[4] = male, Sprague Dawley, plasma, single oral gavage 10 mg/kg, mean
[5] = male, Sprague Dawley, single bolus IV 1 mg/kg, plasma, mean
[6] = single oral gavage 10 mg/kg, mean
[7] = male, DBA/1, plasma, single bolus IV 1 mg/kg, mean
[8] = male, DBA/1, plasma, single oral gavage 10 mg/kg, mean
[9] = male, DBA/1, single bolus IV 1 mg/kg, mean
[10] = male, DBA/1, single oral gavage 10 mg/kg, mean

Q: For CC(/C=N/NC(=N)N)=N\NC(=N)N [MGBG, 1,1′[methylethanediylidene]dinitrilodiguanidine], which clinical findings ([1]; following dosing) is on record?
A: The clinical findings was “Abnormal clinical findings were not noted”.

Q: And the bioavailability ([1]; male, Sprague Dawley, plasma, oral 10 mg/kg vs IV 1 mg/kg)?
A: Its bioavailability is 11.6%.

Q: And the Tmax [1, 3]?
A: The Tmax was 0.083 h.

Q: What about the half-life [1, 3] of the same compound?
A: Its half-life is 17.4 h.

Q: And the Tmax [1, 4]?
A: The Tmax was 4.67 h.

Q: What about the half-life [1, 4] of the same compound?
A: The half-life was 28.1 h.

Q: And the AUC [1, 5]?
A: Its AUC is 1250 ng·h/mL.

Q: What about the Cmax [1, 5] of the same compound?
A: Its Cmax is 684 ng/mL.

Q: What about the AUC ([1]; male, Sprague Dawley, single oral gavage 10 mg/kg, AUCall, time zero to last plasma concentration measurement) of the same compound?
A: The AUC was 1280 ng·h/mL.

Q: What about the Cmax ([1]; male, Sprague Dawley, single oral gavage 10 mg/kg, plasma, mean) of the same compound?
A: Its Cmax is 55.8 ng/mL.

Q: What about the “time point through which MGBG levels in plasma were measurable” value ([1]; single PO 10 mg/kg, beyond that certain samples BLQ) of the same compound?
A: Its value is 12 h.

Q: And the Clobs ([1]; single bolus IV 1 mg/kg, mean)?
A: Its Clobs is 13.4 mL/min/kg.

Q: What about the VSSobs ([1]; single bolus IV 1 mg/kg, mean) of the same compound?
A: The VSSobs was 15.4 L/kg.

Q: And the Clobs [1, 6]?
A: Its Clobs is 3.18 mL/min/kg.

Q: What about the “systemic plasma MGBG exposure” value ([2]; following IV and PO administration) of the same compound?
A: Its value is “observed at all collected plasma time points”.

Q: And the clinical findings ([2]; following dosing)?
A: Its clinical findings is “Abnormal clinical findings were not noted”.

Q: And the bioavailability ([2]; male, DBA/1, plasma, oral 10 mg/kg vs IV 1 mg/kg)?
A: The bioavailability was 44.3%.

Q: And the Tmax [2, 7]?
A: The Tmax was 0.083 h.

Q: And the half-life [2, 7]?
A: The half-life was 13 h.

Q: What about the Tmax [2, 8] of the same compound?
A: Its Tmax is 1 h.

Q: What about the half-life [2, 8] of the same compound?
A: Its half-life is 11.8 h.

Q: What about the AUC [2, 9] of the same compound?
A: Its AUC is 336 ng·h/mL.

Q: What about the Cmax [2, 9] of the same compound?
A: Its Cmax is 181 ng/mL.

Q: What about the AUC [2, 10] of the same compound?
A: Its AUC is 1420 ng·h/mL.

Q: And the Cmax [2, 10]?
A: Its Cmax is 106 ng/mL.

Q: And the Clobs ([2]; single bolus IV 1 mg/kg, mean)?
A: The Clobs was 49.6 mL/min/kg.

Q: And the VSSobs ([2]; single bolus IV 1 mg/kg, mean)?
A: The VSSobs was 38.3 L/kg.

Q: What about the Clobs [2, 6] of the same compound?
A: The Clobs was 6.68 mL/min/kg.

Q: What about the AUC (in vivo; iv, 1 mg/kg) of the same compound?
A: The AUC was 1410 ng·h/mL.

Q: What about the Clobs (in vivo; iv, 1 mg/kg) of the same compound?
A: The Clobs was 13.7 mL/min/kg.

Q: And the Cmax (in vivo; iv, 1 mg/kg)?
A: The Cmax was 1180 ng/mL.

Q: What about the Tmax (in vivo; iv, 1 mg/kg) of the same compound?
A: Its Tmax is 0.083 h.

Q: And the VSSobs (in vivo; iv, 1 mg/kg)?
A: Its VSSobs is 14.6 L/kg.

Q: And the half-life (in vivo; iv, 1 mg/kg)?
A: Its half-life is 15.8 h.

Q: And the AUC (in vivo; po, 10 mg/kg)?
A: The AUC was 6290 ng·h/mL.

Q: What about the Clobs (in vivo; po, 10 mg/kg) of the same compound?
A: The Clobs was 8.29 mL/min/kg.

Q: What about the Cmax (in vivo; po, 10 mg/kg) of the same compound?
A: Its Cmax is 616 ng/mL.

Q: What about the Tmax (in vivo; po, 10 mg/kg) of the same compound?
A: Its Tmax is 1 h.

Q: What about the bioavailability (in vivo; po, 10 mg/kg) of the same compound?
A: Its bioavailability is 49%.

Q: And the half-life (in vivo; po, 10 mg/kg)?
A: The half-life was 15.5 h.
